Data taken from PubChem BioAssay AID330 (DTP/NCI, 2004).
Where “and” joins values, the source holds several entries; their conditions need not be identical. Identical values can stand only once. Inconclusive results and toxic doses are left out.

Tested on: P388 leukemia ip, CD2F1 mice, survival T/C
Assay: NCI In Vivo Anticancer Drug Screen. Data for tumor model P388 Leukemia (intraperitoneal) in CD2F1 (CDF1) mice
Conditions: endpoint: median survival time, higher = longer survival
Procedure, shortened: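 Mice carrying the transplanted tumor received test compound or vehicle. Survival was recorded in each group, and the value is the treated-group measurement divided by that of the vehicle-treated control group.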

For `COc1cccc2c1C(=O)c1c(O)c3c(c(O)c1C2=O)C[C@@](O)(C(=O)CO)C[C@@H]3OC1CC(N)C(O)C(C)O1` (stereo partly drawn), the T/C (dose: 0.04 mg/kg/injection, schedule: Q04DX003 (ip), vehicle: saline) was 116 % of control, the T/C (dose: 0.04 mg/kg/injection, schedule: Q04DX003 (ip), vehicle: water) was 115 % of control and the T/C (dose: 0.06 mg/kg/injection, schedule: Q01DX005 (sc), vehicle: water) was 100 % of control. For the same compound, the T/C (dose: 0.06 mg/kg/injection, schedule: Q03HX008 (ip), vehicle: saline) was 114 % of control, the T/C (dose: 0.06 mg/kg/injection, schedule: Q04DX003 (ip), vehicle: water) was 122 % of control and the T/C (dose: 0.1 mg/kg/injection, schedule: Q04DX003 (ip), vehicle: water) was 121 % of control. For the same compound, the T/C (dose: 0.12 mg/kg/injection, schedule: Q01DX005 (sc), vehicle: water) was 101 % of control, the T/C (dose: 0.13 mg/kg/injection, schedule: Q01DX009 (ip), vehicle: water) was 162 % of control and the T/C (dose: 0.13 mg/kg/injection, schedule: Q03HX008 (ip), vehicle: saline) was 116 % of control. The T/C (dose: 0.25 mg/kg/injection, schedule: Q01DX001 (ip), vehicle: Klucel (hydroxypropylcellulose) (HPC)) was 108 % of control, the T/C (dose: 0.25 mg/kg/injection, schedule: Q01DX001 (ip), vehicle: saline with Tween-80) was 112 % of control and the T/C (dose: 0.25 mg/kg/injection, schedule: Q01DX001 (ip), vehicle: saline) was 105 % of control. The T/C (dose: 0.25 mg/kg/injection, schedule: Q01DX005 (ip), vehicle: water) was 153 % of control and 160 % of control and 161 % of control, the T/C (dose: 0.25 mg/kg/injection, schedule: Q01DX005 (sc), vehicle: water) was 103 % of control and the T/C (dose: 0.3 mg/kg/injection, schedule: Q04DX003 (ip), vehicle: water) was 153 % of control. For the same compound, the T/C (dose: 0.38 mg/kg/injection, schedule: Q01DX009 (ip), vehicle: water) was 151 % of control, the T/C (dose: 0.38 mg/kg/injection, schedule: Q04DX003 (ip), vehicle: water) was 103 % of control and the T/C (dose: 0.44 mg/kg/injection, schedule: Q04DX003 (ip), vehicle: saline) was 158 % of control. For the same compound, the T/C (dose: 0.5 mg/kg/injection, schedule: Q01DX001 (ip), vehicle: Klucel (hydroxypropylcellulose) (HPC)) was 112 % of control, the T/C (dose: 0.5 mg/kg/injection, schedule: Q01DX001 (ip), vehicle: saline with Tween-80) was 115 % of control and the T/C (dose: 0.5 mg/kg/injection, schedule: Q01DX005 (oral), vehicle: water) was 108 % of control. The T/C (dose: 0.5 mg/kg/injection, schedule: Q01DX005 (sc), vehicle: water) was 108 % of control, the T/C (dose: 0.58 mg/kg/injection, schedule: Q04DX003 (ip), vehicle: saline) was 159 % of control and the T/C (dose: 0.62 mg/kg/injection, schedule: Q01DX001 (ip), vehicle: water) was 159 % of control. For the same compound, the T/C (dose: 0.63 mg/kg/injection, schedule: Q01DX001 (ip), vehicle: water) was 154 % of control, the T/C (dose: 0.75 mg/kg/injection, schedule: Q04DX003 (ip), vehicle: water) was 118 % of control and the T/C (dose: 0.97 mg/kg/injection, schedule: Q04DX002 (ip), vehicle: saline) was 157 % of control and 160 % of control. The T/C (dose: 0.97 mg/kg/injection, schedule: Q04DX003 (ip), vehicle: water) was 163 % of control, the T/C (dose: 1.0 mg/kg/injection, schedule: Q01DX001 (ip), vehicle: Klucel (hydroxypropylcellulose) (HPC)) was 110 % of control and the T/C (dose: 1.0 mg/kg/injection, schedule: Q01DX001 (ip), vehicle: saline with Tween-80) was 119 % of control. The T/C (dose: 1.0 mg/kg/injection, schedule: Q01DX001 (iv), vehicle: saline) was 113 % of control, the T/C (dose: 1.0 mg/kg/injection, schedule: Q01DX005 (oral), vehicle: water) was 112 % of control and the T/C (dose: 1.0 mg/kg/injection, schedule: Q01DX005 (sc), vehicle: water) was 113 % of control. For the same compound, the T/C (dose: 1.0 mg/kg/injection, schedule: Q04DX003 (iv), vehicle: saline) was 100 % of control, the T/C (dose: 1.04 mg/kg/injection, schedule: Q04DX002 (ip), vehicle: saline) was 161 % of control and the T/C (dose: 1.08 mg/kg/injection, schedule: Q04DX003 (ip), vehicle: saline) was 159 % of control. The T/C (dose: 1.3 mg/kg/injection, schedule: Q01DX001 (ip), vehicle: water) was 156 % of control, the T/C (dose: 1.5 mg/kg/injection, schedule: Q04DX003 (ip), vehicle: water) was 117 % of control and 120 % of control and the T/C (dose: 1.8 mg/kg/injection, schedule: Q01DX001 (ip), vehicle: saline) was 154 % of control. The T/C (dose: 2.0 mg/kg/injection, schedule: Q01DX001 (ip), vehicle: DMSO) was 157 % of control, the T/C (dose: 2.0 mg/kg/injection, schedule: Q01DX001 (ip), vehicle: Klucel (hydroxypropylcellulose) (HPC)) was 122 % of control and the T/C (dose: 2.0 mg/kg/injection, schedule: Q01DX001 (iv), vehicle: saline) was 108 % of control. For the same compound, the T/C (dose: 2.0 mg/kg/injection, schedule: Q01DX005 (oral), vehicle: water) was 104 % of control, the T/C (dose: 2.0 mg/kg/injection, schedule: Q03HX008 (ip), vehicle: saline) was 162 % of control and the T/C (dose: 2.0 mg/kg/injection, schedule: Q04DX003 (iv), vehicle: saline) was 114 % of control. The T/C (dose: 2.1 mg/kg/injection, schedule: Q01DX004 (ip), vehicle: saline) was 161 % of control, the T/C (dose: 2.59 mg/kg/injection, schedule: Q01DX001 (ip), vehicle: saline) was 160 % of control and the T/C (dose: 3.0 mg/kg/injection, schedule: Q01DX001 (ip), vehicle: saline) was 154 % of control. For the same compound, the T/C (dose: 3.0 mg/kg/injection, schedule: Q04DX003 (ip), vehicle: water) was 120 % of control, the T/C (dose: 3.7 mg/kg/injection, schedule: Q01DX001 (ip), vehicle: saline) was 153 % of control and the T/C (dose: 4.0 mg/kg/injection, schedule: Q01DX001 (ip), vehicle: DMSO) was 162 % of control. For the same compound, the T/C (dose: 4.0 mg/kg/injection, schedule: Q01DX001 (ip), vehicle: saline with Tween-80) was 122 % of control, the T/C (dose: 4.0 mg/kg/injection, schedule: Q01DX001 (iv), vehicle: saline) was 123 % of control and the T/C (dose: 4.0 mg/kg/injection, schedule: Q01DX005 (oral), vehicle: water) was 105 % of control. For the same compound, the T/C (dose: 4.5 mg/kg/injection, schedule: Q04DX003 (iv), vehicle: saline) was 163 % of control, the T/C (dose: 4.75 mg/kg/injection, schedule: Q01DX001 (ip), vehicle: saline) was 163 % of control and the T/C (dose: 5.0 mg/kg/injection, schedule: Q01DX009 (ip), vehicle: saline) was 98 % of control and 105 % of control. The T/C (dose: 5.4 mg/kg/injection, schedule: Q04DX003 (ip), vehicle: saline) was 150 % of control, the T/C (dose: 5.4 mg/kg/injection, schedule: Q04DX003 (ip), vehicle: water) was 115 % of control and the T/C (dose: 6.0 mg/kg/injection, schedule: Q04DX003 (ip), vehicle: water) was 154 % of control. The T/C (dose: 6.0 mg/kg/injection, schedule: Q04DX003 (oral), vehicle: saline) was 98 % of control, the T/C (dose: 6.33 mg/kg/injection, schedule: Q01DX001 (iv), vehicle: saline) was 116 % of control and the T/C (dose: 8.0 mg/kg/injection, schedule: Q01DX001 (oral), vehicle: saline) was 98 % of control. The T/C (dose: 8.0 mg/kg/injection, schedule: Q01DX005 (oral), vehicle: water) was 107 % of control, the T/C (dose: 8.0 mg/kg/injection, schedule: Q04DX002 (ip), vehicle: saline) was 108 % of control and the T/C (dose: 10.0 mg/kg/injection, schedule: Q04DX003 (oral), vehicle: saline) was 105 % of control. For the same compound, the T/C (dose: 11.25 mg/kg/injection, schedule: Q01DX001 (iv), vehicle: saline) was 156 % of control, the T/C (dose: 12.0 mg/kg/injection, schedule: Q01DX001 (oral), vehicle: saline) was 106 % of control and the T/C (dose: 15.0 mg/kg/injection, schedule: Q04DX003 (iv), vehicle: saline) was 153 % of control. The T/C (dose: 16.0 mg/kg/injection, schedule: Q01DX001 (ip), vehicle: saline with Tween-80) was 151 % of control, the T/C (dose: 16.0 mg/kg/injection, schedule: Q01DX001 (oral), vehicle: saline) was 100 % of control and the T/C (dose: 16.0 mg/kg/injection, schedule: Q01DX005 (oral), vehicle: water) was 103 % of control. The T/C (dose: 16.0 mg/kg/injection, schedule: Q04DX003 (iv), vehicle: saline) was 103 % of control, the T/C (dose: 16.7 mg/kg/injection, schedule: Q04DX003 (oral), vehicle: saline) was 107 % of control and 112 % of control and the T/C (dose: 17.5 mg/kg/injection, schedule: Q01DX001 (ip), vehicle: saline) was 150 % of control. For the same compound, the T/C (dose: 20.0 mg/kg/injection, schedule: Q01DX001 (oral), vehicle: saline) was 103 % of control, the T/C (dose: 27.8 mg/kg/injection, schedule: Q04DX003 (oral), vehicle: saline) was 100 % of control and 106 % of control and the T/C (dose: 32.0 mg/kg/injection, schedule: Q01DX001 (ip), vehicle: Klucel (hydroxypropylcellulose) (HPC)) was 112 % of control. The T/C (dose: 32.0 mg/kg/injection, schedule: Q01DX001 (ip), vehicle: saline with Tween-80) was 161 % of control, the T/C (dose: 32.0 mg/kg/injection, schedule: Q01DX001 (oral), vehicle: saline) was 100 % of control and the T/C (dose: 33.3 mg/kg/injection, schedule: Q01DX001 (oral), vehicle: saline) was 99 % of control and 106 % of control. For the same compound, the T/C (dose: 46.3 mg/kg/injection, schedule: Q04DX003 (oral), vehicle: saline) was 103 % of control and 112 % of control, the T/C (dose: 64.0 mg/kg/injection, schedule: Q01DX001 (oral), vehicle: saline) was 107 % of control and the T/C (dose: 77.2 mg/kg/injection, schedule: Q04DX003 (oral), vehicle: saline) was 101 % of control. The T/C (dose: 92.6 mg/kg/injection, schedule: Q01DX001 (oral), vehicle: saline) was 106 % of control, the T/C (dose: 128.0 mg/kg/injection, schedule: Q01DX001 (oral), vehicle: saline) was 100 % of control and the T/C (dose: 128.6 mg/kg/injection, schedule: Q04DX003 (oral), vehicle: saline) was 99 % of control. The T/C (dose: 154.3 mg/kg/injection, schedule: Q01DX001 (oral), vehicle: saline) was 101 % of control.
